{"source": "patent US20100304967A1", "about": "“METHOD OF PROTECTING RICE CROPS” (SYNGENTA CROP PROTECTION, INC., priority 2007, published 2010)", "key": {"cultivated rice": {"tested_on": "cultivated rice", "test": "Example 2: damage to cultivated rice with or without safener seed dressing after clodinafop application", "format": "in vivo, Oryza sativa", "details": "for Damage to rice (%) after number of days 5: 5 days; for Damage to rice (%) after number of days 10: 10 days; for Damage to rice (%) after number of days 15: 15 days", "experimental": "(§1) 500 g of rice seed material are soaked in water in a plastic dish for 24 hours. After the water has been poured off, the seed material is allowed to dry in air for 1 to 2 hours; 0.025 or 0.25 g of safener of formula (I) or (II) is then added and vigorous shaking is carried out. Sowing is performed 24 hours later.\n5 days after sowing, the herbicide clodinafop in the form of an EC 100 is applied at a rate of application of 60 or 120 g/ha. 5, 10 and 15 days afterwards, the damage to the rice plants that have emerged and to the weeds is determined. For comparison, untreated cultivated rice is tested under the same conditions as an indicator of the behaviour of wild rice."}, "rice plants": {"tested_on": "rice plants", "test": "Example 1: damage to directly sown rice from safener-dressed seed after clodinafop application", "format": "in vivo, Oryza sativa", "details": "for Damage to rice (%) after number of days 5: 5 days after application; for Damage to rice (%) after number of days 10: 10 days after application; for Damage to rice (%) after number of days 15: 15 days after application", "experimental": "as §1\n(§2) 5 days after sowing, the herbicide clodinafop in the form of an EC 100 is applied at a rate of application of 60 g/ha. 5, 10 and 15 days afterwards, the damage to the rice plants that have emerged and to the weeds is determined."}, "[1]": {"tested_on": "wild rice (Oryza sativa), Echinochloa crus-galli and Leptochloa chinensis", "test": "Example 1: damage to undesirable grasses after clodinafop application", "format": "in vivo", "details": "clodinafop 60 g/ha", "experimental": "as §1, §2"}, "[2]": {"details": "cultivated rice without safener (indicator for wild rice), clodinafop 60 g/ha"}, "[3]": {"details": "cultivated rice without safener (indicator for wild rice), clodinafop 120 g/ha"}, "[4]": {"details": "no safener, clodinafop EC 100 60 g/ha applied 5 days after sowing"}, "[5]": {"details": "cultivated rice with 0.025 g of safener (per 500 g seed), clodinafop 60 g/ha"}, "[6]": {"details": "cultivated rice with 0.025 g of safener (per 500 g seed), clodinafop 120 g/ha"}, "[7]": {"details": "cultivated rice with 0.25 g of safener (per 500 g seed), clodinafop 60 g/ha"}, "[8]": {"details": "cultivated rice with 0.25 g of safener (per 500 g seed), clodinafop 120 g/ha"}, "[9]": {"details": "safener 0.025 g per 500 g of seed material, clodinafop 60 g/ha"}, "[10]": {"details": "safener 0.25 g per 500 g of seed material, clodinafop 60 g/ha"}, "[11]": {"details": "rice seed dressed with safener 0.025 g per 500 g"}, "[12]": {"details": "rice seed dressed with safener 0.25 g per 500 g"}}, "data": [{"smiles": "C[C@@H](Oc1ccc(Oc2ncc(Cl)cc2F)cc1)C(=O)O", "note": "[Clodinafop, clodinafop, reference compound]", "values": [{"measurement": "Damage to rice (%) after number of days 5", "setting": "cultivated rice; [2]", "value": 40, "unit": "%"}, {"measurement": "Damage to rice (%) after number of days 10", "setting": "cultivated rice; [2]", "value": 90, "unit": "%"}, {"measurement": "Damage to rice (%) after number of days 15", "setting": "cultivated rice; [2]", "value": 65, "unit": "%"}, {"measurement": "Damage to rice (%) after number of days 5", "setting": "cultivated rice; [3]", "value": 78, "unit": "%"}, {"measurement": "Damage to rice (%) after number of days 10", "setting": "cultivated rice; [3]", "value": 98, "unit": "%"}, {"measurement": "Damage to rice (%) after number of days 15", "setting": "cultivated rice; [3]", "value": 100, "unit": "%"}, {"measurement": "Damage to rice (%) after number of days 5", "setting": "rice plants; [4]", "value": 68, "unit": "%"}, {"measurement": "Damage to rice (%) after number of days 10", "setting": "rice plants; [4]", "value": 65, "unit": "%"}, {"measurement": "Damage to rice (%) after number of days 15", "setting": "rice plants; [4]", "value": 30, "unit": "%"}, {"measurement": "Damage to undesirable grasses* (%)", "setting": "[1]; no safener", "value": 93, "unit": "%"}]}, {"smiles": "COC(=O)c1sccc1NS(=O)(=O)c1nc2nc(C)cc(C)n2n1", "note": "[Formula II]", "values": [{"measurement": "Damage to rice (%) after number of days 5", "setting": "cultivated rice; [5]", "value": 18, "unit": "%"}, {"measurement": "Damage to rice (%) after number of days 10", "setting": "cultivated rice; [5]", "value": 8, "unit": "%"}, {"measurement": "Damage to rice (%) after number of days 15", "setting": "cultivated rice; [5]", "value": 0, "unit": "%"}, {"measurement": "Damage to rice (%) after number of days 5", "setting": "cultivated rice; [6]", "value": 23, "unit": "%"}, {"measurement": "Damage to rice (%) after number of days 10", "setting": "cultivated rice; [6]", "value": 15, "unit": "%"}, {"measurement": "Damage to rice (%) after number of days 15", "setting": "cultivated rice; [6]", "value": 8, "unit": "%"}, {"measurement": "Damage to rice (%) after number of days 5", "setting": "cultivated rice; [7]", "value": 13, "unit": "%"}, {"measurement": "Damage to rice (%) after number of days 10", "setting": "cultivated rice; [7]", "value": 9, "unit": "%"}, {"measurement": "Damage to rice (%) after number of days 15", "setting": "cultivated rice; [7]", "value": 0, "unit": "%"}, {"measurement": "Damage to rice (%) after number of days 5", "setting": "cultivated rice; [8]", "value": 25, "unit": "%"}, {"measurement": "Damage to rice (%) after number of days 10", "setting": "cultivated rice; [8]", "value": 16, "unit": "%"}, {"measurement": "Damage to rice (%) after number of days 15", "setting": "cultivated rice; [8]", "value": 5, "unit": "%"}, {"measurement": "Damage to rice (%) after number of days 5", "setting": "rice plants; [9]", "value": 21, "unit": "%"}, {"measurement": "Damage to rice (%) after number of days 10", "setting": "rice plants; [9]", "value": 9, "unit": "%"}, {"measurement": "Damage to rice (%) after number of days 15", "setting": "rice plants; [9]", "value": 0, "unit": "%"}, {"measurement": "Damage to rice (%) after number of days 5", "setting": "rice plants; [10]", "value": 5, "unit": "%"}, {"measurement": "Damage to rice (%) after number of days 10", "setting": "rice plants; [10]", "value": 3, "unit": "%"}, {"measurement": "Damage to rice (%) after number of days 15", "setting": "rice plants; [10]", "value": 0, "unit": "%"}, {"measurement": "Damage to undesirable grasses* (%)", "setting": "[1]; [11]", "value": 98, "unit": "%"}, {"measurement": "Damage to undesirable grasses* (%)", "setting": "[1]; [12]", "value": 99, "unit": "%"}]}, {"smiles": "CNC(=O)Nc1ccc(S(=O)(=O)NC(=O)c2ccccc2OC)cc1", "note": "[Formula I]", "values": [{"measurement": "Damage to rice (%) after number of days 5", "setting": "rice plants; [9]", "value": 5, "unit": "%"}, {"measurement": "Damage to rice (%) after number of days 10", "setting": "rice plants; [9]", "value": 0, "unit": "%"}, {"measurement": "Damage to rice (%) after number of days 15", "setting": "rice plants; [9]", "value": 0, "unit": "%"}, {"measurement": "Damage to rice (%) after number of days 5", "setting": "rice plants; [10]", "value": 4, "unit": "%"}, {"measurement": "Damage to rice (%) after number of days 10", "setting": "rice plants; [10]", "value": 3, "unit": "%"}, {"measurement": "Damage to rice (%) after number of days 15", "setting": "rice plants; [10]", "value": 0, "unit": "%"}, {"measurement": "Damage to undesirable grasses* (%)", "setting": "[1]; [11]", "value": 100, "unit": "%"}, {"measurement": "Damage to undesirable grasses* (%)", "setting": "[1]; [12]", "value": 98, "unit": "%"}]}]}
